Earlier results in patent US20240424024A1, “PHARMACEUTICAL COMPOSITION AND KIT COMPRISING AN IMMUNOMODULATORY SUBSTANCE FOR TREATING DISEASES” (ellennbe GmbH, priority 2021, published 2024).

Tested on: perfusion of the skin
Settings: 50 μl of 20 mmol/l MN, healthy subjects, Laser Speckle Contrast Imager; Elawa et al. 2020

SMILES: COC(=O)c1cccnc1 [methyl nicotinate]
- perfusion increase of the skin after topical application: reaches a stable plateau phase after five minutes
